Test [1] deals with PI3K-δ (PI3K(p1108/p857) (h)) (Homo sapiens, UniProt O00329). Description: Evaluation of inhibitory activity against PI3K-δ (HTRF kinase assay). The conditions noted are these: for inhibition at 0.1 µM: read-out: EXP_VALUE(% Inhibition) PI3K-δ 0.1 μM; for inhibition at 0.01 µM: compound concentration 0.01 μM, read-out: EXP_VALUE(% Inhibition) PI3K-δ 0.01 μM. It counts as biochemical. An outline of the steps:
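HTRF read-out (665/620 nm ratio ×10000) used Eu-labelled anti-GST, GST-tagged GRP1 PH domain and streptavidin-allophycocyanin after EDTA/PIP3 stop.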

For another test, the target named is DNA-PK(h) (Homo sapiens, UniProt P78527). Put plainly: Evaluation of inhibitory activity against DNA-PK (HTRF kinase assay, GST-cMyc-p53 substrate). It counts as biochemical. The conditions noted are these: for inhibition at 0.1 µM: read-out: EXP_VALUE(% Inhibition) DNA-PK(h) 0.1 μM; for inhibition at 0.01 µM: compound concentration 0.01 μM, read-out: EXP_VALUE(% Inhibition) DNA-PK(h) 0.01 μM. In outline: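 p53 Ser15 phosphorylation by human DNA-PK was measured by time-resolved FRET ratio (665/620 nm ×10000) using Eu-labelled anti-phospho-Ser15 and d2 anti-GST antibodies. Substrate GST-cMyc-p53 at 50 μM; Mg/ATP-initiated, 30 min at room temperature, EDTA stop.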
A general note: In TR-FRET formats the signal depends on donor and acceptor labels being close together.

Read-outs that look alike come from different tables or passages of the source.

PI3K-δ (PI3K(p1108/p857) (h)), sequence (O00329 whole entry, the tested form may be a part): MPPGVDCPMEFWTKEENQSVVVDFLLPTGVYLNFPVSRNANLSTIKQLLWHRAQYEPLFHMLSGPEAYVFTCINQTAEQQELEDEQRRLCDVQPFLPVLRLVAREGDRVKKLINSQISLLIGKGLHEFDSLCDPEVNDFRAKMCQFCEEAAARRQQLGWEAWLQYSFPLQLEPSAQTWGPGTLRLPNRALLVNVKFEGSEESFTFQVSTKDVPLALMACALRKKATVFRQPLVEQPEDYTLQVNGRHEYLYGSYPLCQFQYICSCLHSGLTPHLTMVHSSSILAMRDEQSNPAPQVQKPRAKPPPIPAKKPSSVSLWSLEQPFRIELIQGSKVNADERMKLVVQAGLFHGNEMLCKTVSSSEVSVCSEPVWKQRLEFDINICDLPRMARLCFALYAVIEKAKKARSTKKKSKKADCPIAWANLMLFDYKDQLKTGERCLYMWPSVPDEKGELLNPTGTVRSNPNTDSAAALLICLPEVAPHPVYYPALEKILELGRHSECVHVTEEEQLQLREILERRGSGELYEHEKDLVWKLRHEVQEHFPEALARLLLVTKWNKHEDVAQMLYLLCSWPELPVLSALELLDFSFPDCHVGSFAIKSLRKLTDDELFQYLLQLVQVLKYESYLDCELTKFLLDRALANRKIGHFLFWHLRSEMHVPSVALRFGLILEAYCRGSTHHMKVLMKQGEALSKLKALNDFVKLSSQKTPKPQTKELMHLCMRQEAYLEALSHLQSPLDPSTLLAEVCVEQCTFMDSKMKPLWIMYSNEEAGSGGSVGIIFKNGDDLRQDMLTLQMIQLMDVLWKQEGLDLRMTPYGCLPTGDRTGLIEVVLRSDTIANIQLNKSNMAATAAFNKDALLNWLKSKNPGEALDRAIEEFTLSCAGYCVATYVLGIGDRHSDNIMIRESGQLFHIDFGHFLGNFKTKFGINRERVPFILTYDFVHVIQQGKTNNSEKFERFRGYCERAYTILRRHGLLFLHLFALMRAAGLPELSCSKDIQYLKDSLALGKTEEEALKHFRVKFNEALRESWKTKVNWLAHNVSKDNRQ
PI3K-δ (PI3K(p1108/p857) (h)), sequence (P27986 whole entry partner, the tested form may be a part): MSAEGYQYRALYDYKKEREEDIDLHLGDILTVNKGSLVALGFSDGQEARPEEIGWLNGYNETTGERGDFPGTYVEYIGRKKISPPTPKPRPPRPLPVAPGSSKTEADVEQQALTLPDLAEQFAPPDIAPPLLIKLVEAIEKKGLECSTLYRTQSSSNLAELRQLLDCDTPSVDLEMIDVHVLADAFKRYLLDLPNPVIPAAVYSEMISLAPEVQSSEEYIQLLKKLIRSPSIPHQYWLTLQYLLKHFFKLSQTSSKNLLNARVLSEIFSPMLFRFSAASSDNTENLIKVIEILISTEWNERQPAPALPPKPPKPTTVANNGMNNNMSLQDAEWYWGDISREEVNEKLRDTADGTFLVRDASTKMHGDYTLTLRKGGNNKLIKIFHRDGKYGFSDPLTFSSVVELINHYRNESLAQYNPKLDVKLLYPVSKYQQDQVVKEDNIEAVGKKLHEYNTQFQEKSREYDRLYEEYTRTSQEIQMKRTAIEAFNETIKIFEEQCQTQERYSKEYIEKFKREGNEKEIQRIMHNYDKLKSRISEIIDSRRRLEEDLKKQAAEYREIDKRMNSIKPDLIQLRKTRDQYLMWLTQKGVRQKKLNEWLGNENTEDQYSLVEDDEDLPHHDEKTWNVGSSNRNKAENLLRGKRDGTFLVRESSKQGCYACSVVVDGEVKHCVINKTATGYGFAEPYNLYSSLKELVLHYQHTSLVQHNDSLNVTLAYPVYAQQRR

What is called inhibition is the relative decrease from the control value, in per cent. `CCc1ncc(-c2cccc3c(Cl)c([C@H](C)Nc4ncnc5[nH]ccc(=O)c45)n(-c4ccccc4)c(=O)c23)cn1` [Example 379, (S)-4-((1-(4-chloro-8-(2-ethylpyrimidin-5-yl)-1-oxo-2-phenyl-1,2-dihydroisoquinolin-3-yl)ethyl)amino)pyrido[2,3-d]pyrimidin-5(8H)-one]: the inhibition at 0.1 µM in test [1] (compound at 0.1 μM) is 80%; at DNA-PK(h) (compound at 0.1 μM), 74%.

`C[C@H](Nc1ncnc2[nH]ccc(=O)c12)c1c(Cl)c2cccc(-c3ccc(N4CCOCC4)nc3)c2c(=O)n1-c1ccccc1` [Example 175, (S)-4-((1-(4-chloro-8-(6-morpholinopyridin-3-yl)-1-oxo-2-phenyl-1,2-dihydroisoquinolin-3-yl)ethyl)amino)pyrido[2,3-d]pyrimidin-5(8H)-one]: the inhibition at 0.01 µM in test [1] worked out at 70%; on DNA-PK(h), 80%.

As to `C[C@H](Nc1ncnc2[nH]ccc(=O)c12)c1c(Cl)c2cccc(SC(C)(C)C)c2c(=O)n1-c1ccccc1` [Example 426, (S)-4-((1-(8-(tert-butylthio)-4-chloro-1-oxo-2-phenyl-1,2-dihydroisoquinolin-3-yl)ethyl)amino)pyrido[2,3-d]pyrimidin-5(8H)-one], the values for the inhibition at 0.1 µM (in test [1] (compound at 0.1 μM); at DNA-PK(h) (compound at 0.1 μM)) were 12% and 8%, respectively.

Turning to `C[C@H](Nc1ncnc2[nH]ccc(=O)c12)c1c(Cl)c2cccc(C3NCCS3)c2c(=O)n1-c1ccccc1` (stereo partly drawn) [Example 356, 4-(((1S)-1-(4-chloro-1-oxo-2-phenyl-8-(thiazolidin-2-yl)-1,2-dihydroisoquinolin-3-yl)ethyl)amino)pyrido[2,3-d]pyrimidin-5(8H)-one], the inhibition at 0.01 µM in test [1] turned out to be 62%; on DNA-PK(h), 34%.

As to `C[C@H](Nc1ncnc2[nH]ccc(=O)c12)c1c(Cl)c2cccc(-c3cccc4c3cnn4C)c2c(=O)n1-c1ccccc1` [Example 237, (S)-4-((1-(4-chloro-8-(1-methyl-1H-indazol-4-yl)-1-oxo-2-phenyl-1,2-dihydroisoquinolin-3-yl)ethyl)amino)pyrido[2,3-d]pyrimidin-5(8H)-one], the inhibition at 0.01 µM was 85% in test [1] and 29% on DNA-PK(h).

As to `Cc1c(-c2cccc3c(Cl)c([C@H](C)Nc4ncnc5[nH]ccc(=O)c45)n(-c4ccccc4)c(=O)c23)cnn1C` [Example 82, (S)-4-((1-(4-chloro-8-(1,5-dimethyl-1H-pyrazol-4-yl)-1-oxo-2-phenyl-1,2-dihydroisoquinolin-3-yl)ethyl)amino)pyrido[2,3-d]pyrimidin-5(8H)-one], the inhibition at 0.01 µM in test [1] amounted to 73%; at DNA-PK(h) it was 74%. The inhibition at 0.1 µM (in test [1] (compound concentration 0.1 μM); on DNA-PK(h) (compound concentration 0.1 μM)) was 94% each time.

In the case of `C[C@H](Nc1ncnc2[nH]ccc(=O)c12)c1c(Cl)c2cccc(-c3ccc(OC4CCOCC4)nc3)c2c(=O)n1-c1ccccc1` [Example 162, (S)-4-((1-(4-chloro-1-oxo-2-phenyl-8-(6-((tetrahydro-2H-pyran-4-yl)oxy)pyridin-3-yl)-1,2-dihydroisoquinolin-3-yl)ethyl)amino)pyrido[2,3-d]pyrimidin-5(8H)-one], the figures for the inhibition at 0.01 µM (in test [1]; at DNA-PK(h)) were 81% and 63%, respectively.

Regarding `C[C@H](Nc1ncnc2[nH]ccc(=O)c12)c1c(Cl)c2cccc(S(=O)(=O)c3nc[nH]n3)c2c(=O)n1-c1ccccc1` [Example 401, (S)-4-((1-(8-((1H-1,2,4-triazol-3-yl)sulfonyl)-4-chloro-1-oxo-2-phenyl-1,2-dihydroisoquinolin-3-yl)ethyl)amino)pyrido[2,3-d]pyrimidin-5(8H)-one], the inhibition at 0.1 µM was found to be 42% in test [1] (compound at 0.1 μM) and 24% on DNA-PK(h) (compound at 0.1 μM).

With `C[C@H](Nc1ncnc2[nH]ccc(=O)c12)c1c(Cl)c2cccc(-c3cnn(C)c3)c2c(=O)n1-c1ccccc1` [Example 5, (S)-4-((1-(4-chloro-8-(1-methyl-1H-pyrazol-4-yl)-1-oxo-2-phenyl-1,2-dihydroisoquinolin-3-yl)ethyl)amino)pyrido[2,3-d]pyrimidin-5(8H)-one], the inhibition at 0.01 µM turned out to be 106% in test [1] and 69% at DNA-PK(h). Further, the results for the inhibition at 0.1 µM (in test [1] (compound concentration 0.1 μM); at DNA-PK(h) (compound concentration 0.1 μM)) were 115% and 100%, respectively.

`C[C@H](Nc1ncnc2[nH]ccc(=O)c12)c1cc2cccc(-c3ccc(N(C)C)nc3)c2c(=O)n1-c1ccccc1` [Example 264, (S)-4-((1-(8-(6-(dimethylamino)pyridin-3-yl)-1-oxo-2-phenyl-1,2-dihydroisoquinolin-3-yl)ethyl)amino)pyrido[2,3-d]pyrimidin-5(8H)-one]: the inhibition at 0.01 µM was 73% in test [1] and 7% on DNA-PK(h). In addition, the inhibition at 0.1 µM in test [1] (compound concentration 0.1 μM) amounted to 82%; at DNA-PK(h) (compound concentration 0.1 μM), 41%.

With `C[C@H](Nc1ncnc2[nH]ccc(=O)c12)c1c(Cl)c2cccc(-c3ccc(C4CCN(C)CC4)cc3)c2c(=O)n1-c1ccccc1` [Example 130, (S)-4-((1-(4-chloro-8-(4-(1-methylpiperidin-4-yl)phenyl)-1-oxo-2-phenyl-1,2-dihydroisoquinolin-3-yl)ethyl)amino)pyrido[2,3-d]pyrimidin-5(8H)-one], the results for the inhibition at 0.01 µM (in test [1]; on DNA-PK(h)) were 85% and 98%, respectively. For the same compound, the inhibition at 0.1 µM in test [1] (compound concentration 0.1 μM) came out at 89%; at DNA-PK(h) (compound concentration 0.1 μM), 102%.

With `C[C@H](Nc1ncnc2[nH]ccc(=O)c12)c1c(Cl)c2cccc(-c3ccc(N4CCOCC4)cc3)c2c(=O)n1-c1ccccc1` [Example 75, (S)-4-((1-(4-chloro-8-(4-morpholinophenyl)-1-oxo-2-phenyl-1,2-dihydroisoquinolin-3-yl)ethyl)amino)pyrido[2,3-d]pyrimidin-5(8H)-one], the inhibition at 0.01 µM in test [1] was determined as 79%; on DNA-PK(h) it was 82%. Also, the inhibition at 0.1 µM in test [1] (compound concentration 0.1 μM) is 86%; at DNA-PK(h) (compound concentration 0.1 μM), 99%.

As for `C[C@H](Nc1ncnc2[nH]ccc(=O)c12)c1c(Cl)c2cccc(B(O)O)c2c(=O)n1-c1ccccc1` [Example 353, (S)-(4-chloro-1-oxo-3-(1-((5-oxo-5,8-dihydropyrido[2,3-d]pyrimidin-4-yl)amino)ethyl)-2-phenyl-1,2-dihydroisoquinolin-8-yl)boronic acid], the inhibition at 0.01 µM is 84% in test [1] and 19% on DNA-PK(h). For the same compound, the inhibition at 0.1 µM is 94% in test [1] (compound concentration 0.1 μM) and 62% at DNA-PK(h) (compound concentration 0.1 μM).

For the compound `C[C@H](Nc1ncnc2[nH]ccc(=O)c12)c1c(Cl)c2cccc(Oc3cccnc3)c2c(=O)n1-c1ccccc1` [Example 437, (S)-4-((1-(4-chloro-1-oxo-2-phenyl-8-(pyridin-3-yloxy)-1,2-dihydroisoquinolin-3-yl)ethyl)amino)pyrido[2,3-d]pyrimidin-5(8H)-one], the inhibition at 0.1 µM was determined as 33% in test [1] (compound at 0.1 μM) and 53% at DNA-PK(h) (compound at 0.1 μM).

For `C[C@H](Nc1ncnc2[nH]ccc(=O)c12)c1c(Cl)c2cccc([S@+]([O-])c3ccc(OC(F)(F)F)cc3)c2c(=O)n1-c1ccccc1` [Example 395, 4-(((S)-1-(4-chloro-1-oxo-2-phenyl-8-(((R)-4-(trifluoromethoxy)phenyl)sulfinyl)-1,2-dihydroisoquinolin-3-yl)ethyl)amino)pyrido[2,3-d]pyrimidin-5(8H)-one], the inhibition at 0.1 µM in test [1] (compound at 0.1 μM) was determined as 12%; at DNA-PK(h) (compound at 0.1 μM), 15%.

Turning to `C[C@H](Nc1ncnc2[nH]ccc(=O)c12)c1c(Cl)c2cccc(-c3ccc(N4CCCCC4)cc3)c2c(=O)n1-c1ccccc1` [Example 88, (S)-4-((1-(4-chloro-1-oxo-2-phenyl-8-(4-(piperidin-1-yl)phenyl)-1,2-dihydroisoquinolin-3-yl)ethyl)amino)pyrido[2,3-d]pyrimidin-5(8H)-one], the inhibition at 0.01 µM in test [1] worked out at 42%; at DNA-PK(h), 33%. The values for the inhibition at 0.1 µM (in test [1] (compound concentration 0.1 μM); on DNA-PK(h) (compound concentration 0.1 μM)) were 88% and 78%, respectively.

`C[C@H](Nc1ncnc2[nH]ccc(=O)c12)c1c(Cl)c2cccc(-c3ccc4c(c3)OCO4)c2c(=O)n1-c1ccccc1` [Example 60, (S)-4-((1-(8-(benzo[d][1,3]dioxol-5-yl)-4-chloro-1-oxo-2-phenyl-1,2-dihydroisoquinolin-3-yl)ethyl)amino)pyrido[2,3-d]pyrimidin-5(8H)-one]: the results for the inhibition at 0.01 µM (in test [1]; at DNA-PK(h)) were 94% and 74%, respectively.

Turning to `C[C@H](Nc1ncnc2[nH]ccc(=O)c12)c1c(Cl)c2cccc(N(C)C)c2c(=O)n1-c1ccccc1` [Example 249, (S)-4-((1-(4-chloro-8-(dimethylamino)-1-oxo-2-phenyl-1,2-dihydroisoquinolin-3-yl)ethyl)amino)pyrido[2,3-d]pyrimidin-5(8H)-one], the inhibition at 0.01 µM in test [1] turned out to be 69%; on DNA-PK(h), 11%. Further, the inhibition at 0.1 µM in test [1] (compound concentration 0.1 μM) turned out to be 98%; at DNA-PK(h) (compound concentration 0.1 μM), 69%.

As to `C[C@H](Nc1ncnc2[nH]ccc(=O)c12)c1c(Cl)c2cccc(-c3ccc(-c4cccs4)cc3)c2c(=O)n1-c1ccccc1` [Example 93, (S)-4-((1-(4-chloro-1-oxo-2-phenyl-8-(4-(thiophen-2-yl)phenyl)-1,2-dihydroisoquinolin-3-yl)ethyl)amino)pyrido[2,3-d]pyrimidin-5(8H)-one], the inhibition at 0.01 µM turned out to be 46% in test [1] and 13% on DNA-PK(h). In addition, the inhibition at 0.1 µM was 79% in test [1] (compound concentration 0.1 μM) and 45% at DNA-PK(h) (compound concentration 0.1 μM).

Values taken from patent publication US20230072683A1, “PYRIDO-PYRIMIDIN DERIVATIVES AND PHARMACEUTICAL COMPOSITION, FOR USE IN PREVENTING OR TREATING PI3 KINASE RELATED DISEASES, COMPRISING SAME AS ACTIVE INGREDIENT” (BORYUNG PHARMACEUTICAL CO., LTD, priority 2019, published 2023).
